Where two headings read alike, the source gives them in different places.
Assays:
K-Ras G12S = target: T1, K-Ras G12S (Homo sapiens, UniProt P01116, G12S); assay: HTRF assay of the K-Ras / SOS1 interaction; type: biochemical; settings: IC50 (against K-Ras G12D) to IC50 (against K-Ras G12S)
T1 construct: made in house; host or cells: E. coli (e.g., BL21 (DE3))
Outline: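 Compounds (duplicates, 10 µM to 0.01 µM) were incubated ≥~10 min with Eu-labelled GST-K-Ras G12S and XL665-labelled His-hSOS1 in HEPES pH 7.4 buffer containing NaCl, DTT, BSA and Igepal. Disruption measured as HTRF emission ratio 665/620 nm, fitted to IC50.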

GP2D cells = assay: Cell proliferation assay (CellTiter-Glo), K-Ras G12D cells; type: cell-based; settings: read-out: Inhibition of GP2D Cells (IC50)
Outline: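 CellTiter-Glo luminescence, taken roughly 5 days after dosing, measured growth of G12D-mutant GP2D cells in DMEM/2 mM glutamine/10% FBS. Compound dilution series (e.g., 9 points, 3-fold) added the day after plating. Four-parameter fitting gave IC50.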

A549 cells = assay: Cell proliferation assay (CellTiter-Glo), K-Ras G12S cells; type: cell-based; settings: for IC50: Homo sapiens
Method: A549 (ATCC CRL-185) and LS123 (ATCC CRL-255) cell lines comprise a G12S mutation and can be used to assess Ras cellular signaling in vitro, e.g., in response to the compounds herein. A549 culture medium is prepared with RPMI-1640 and 10% heat-inactivated FBS. LS123 culture medium is prepared with RPMI-1640 and 10% heat-inactivated FBS. A CellTiter-Glo (CTG) luminescent based assay (Promega) is used to assess growth of the cells, as a measurement of the ability of the compounds herein to inhibit Ras signaling in the cells. The cells (e.g., 800 per well) are seeded in their respective culture medium in standard tissue culture-treated 384-well format plates (Falcon #08-772-116) or ultra-low attachment surface 384-well format plates (S-Bio # MS-9384WZ). The day after plating, cells are treated with a dilution series (e.g., a 10 point 3-fold dilution series) of the compounds herein (e.g., approximately 40 µl final volume per well). Cell viability can be monitored (e.g., approximately 6 days later) according to the manufacturer's recommended instructions, where the CellTiter-Glo reagent is added (e.g., approximately 10 µl), vigorously mixed, covered, and placed on a plate shaker (e.g., approximately for 20 min) to ensure sufficient cell lysis prior to assessment of luminescent signal. The IC50 values are determined using the four parameter fit. The resulting IC50 value is a measurement of the ability of the compounds herein to reduce cell growth of Ras-driven cells (e.g., tumor cell lines) in vitro and/or in vivo.

[1] = A549, A549 cells (K-Ras G12S), bin 500 nM to 5 µM, read-out: Inhibition of A549 Cells (IC50)
[2] = A549, read-out: Inhibition of A549 Cells (IC50)
[3] = A549, A549 cells (K-Ras G12S), bin ≤ 500 nM, read-out: Inhibition of A549 Cells (IC50)

T1 sequence (P01116 1-188 isoform P01116-2 G12S): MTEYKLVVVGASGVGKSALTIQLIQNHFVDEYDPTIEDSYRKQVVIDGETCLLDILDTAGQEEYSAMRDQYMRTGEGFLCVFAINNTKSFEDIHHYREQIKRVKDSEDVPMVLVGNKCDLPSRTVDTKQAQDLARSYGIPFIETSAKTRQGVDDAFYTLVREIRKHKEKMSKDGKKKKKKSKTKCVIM

| Compound | Ratio of IC50 KRAS G12D vs. IC50 KRAS G12S (K-Ras G12S) | IC50 (GP2D cells; GP2D cells (K-Ras G12D)) [nM] | IC50 (A549 cells; [1]) [nM] | IC50 (GP2D cells; GP2d) [nM] | IC50 (A549 cells; [2]) [nM] | IC50 (A549 cells; [3]) [nM] | ratio of IC50 against a G12D cell line to IC50 against a G12S cell line (A549 cells; K-Ras G12D cell line such as GP2D relative to K-Ras G12S cell line such as A549, greater than 1, 2, 3, 4, 5, 10, 15 or even greater, 8640 min) |
| --- | --- | --- | --- | --- | --- | --- | --- |
| Nc1nc2c(-c3c(Cl)cc4c(N5CC6CCC(C5)N6C(=O)n5ccnc5Cl)nc(OC[C@@]56CCCN5C[C@H](F)C6)nc4c3F)ccc(F)c2s1 [Compound A242, (3-(7-(2-amino-7-fluorobenzo[d]thiazol-4-yl)-6-chloro-8-fluoro-2-(((2R,7aS)-2-fluorotetrahydro-1H-pyrrolizin-7a(5H)-yl)methoxy)quinazolin-4-yl)-3,8-diazabicyclo[3.2.1]octan-8-yl)(2-chloro-1H-imidazol-1-yl)methanone] | A (A: indicates that the ratio of IC50 against KrasG12D vs. IC50 against KrasG12S is 1-fold or greater) | ≤ 1000 | 500 to 5000 |  |  |  |  |
| Nc1nc2c(-c3c(Cl)cc4c(N5CC6CCC(C5)N6C(=O)n5ccnn5)nc(OC[C@@]56CCCN5C[C@H](F)C6)nc4c3F)ccc(F)c2s1 [Compound A153, (3-(7-(2-amino-7-fluorobenzo[d]thiazol-4-yl)-6-chloro-8-fluoro-2-(((2R,7aS)-2-fluorotetrahydro-1H-pyrrolizin-7a(5H)-yl)methoxy)quinazolin-4-yl)-3,8-diazabicyclo[3.2.1]octan-8-yl)(1H-1,2,3-triazol-1-yl)methanone] | A (A: indicates that the ratio of IC50 against KrasG12D vs. IC50 against KrasG12S is 1-fold or greater) |  |  | ≤ 1000 | 500 to 5000 |  |  |
| Nc1nc2c(-c3c(Cl)cc4c(N5CCC6(CC5)CN(C(=O)n5cncn5)C6)nc(OC[C@@]56CCCN5C[C@H](F)C6)nc4c3F)ccc(F)c2s1 [Compound A233, (7-(7-(2-amino-7-fluorobenzo[d]thiazol-4-yl)-6-chloro-8-fluoro-2-(((2R,7aS)-2-fluorotetrahydro-1H-pyrrolizin-7a(5H)-yl)methoxy)quinazolin-4-yl)-2,7-diazaspiro[3.5]nonan-2-yl)(1H-1,2,4-triazol-1-yl)methanone] | A (A: indicates that the ratio of IC50 against KrasG12D vs. IC50 against KrasG12S is 1-fold or greater) | 1000 to 10000 | 500 to 5000 |  |  |  |  |
| N#Cc1c(N)sc2c(F)ccc(-c3c(Cl)cc4c(N5CCC6C5CCN6C(=O)n5cncn5)nc(OC[C@@]56CCCN5C[C@H](F)C6)nc4c3F)c12 (stereo partly drawn) [Compound A108, 4-(4-(4-(1H-1,2,4-triazole-1-carbonyl)hexahydropyrrolo[3,2-b]pyrrol-1(2H)-yl)-6-chloro-8-fluoro-2-(((2R,7aS)-2-fluorotetrahydro-1H-pyrrolizin-7a(5H)-yl)methoxy)quinazolin-7-yl)-2-amino-7-fluorobenzo[b]thiophene-3-carbonitrile] | A (A: indicates that the ratio of IC50 against KrasG12D vs. IC50 against KrasG12S is 1-fold or greater) | ≤ 1000 |  |  |  | ≤ 500 |  |
| Nc1nc2c(-c3c(Cl)cc4c(N5C[C@H]6CC[C@@H](C5)N6C(=O)Nc5ccncn5)nc(OC[C@@]56CCCN5C[C@H](F)C6)nc4c3F)ccc(F)c2s1 [Compound A223, (1R,5S)-3-(7-(2-amino-7-fluorobenzo[d]thiazol-4-yl)-6-chloro-8-fluoro-2-(((2R,7aS)-2-fluorotetrahydro-1H-pyrrolizin-7a(5H)-yl)methoxy)quinazolin-4-yl)-N-(pyrimidin-4-yl)-3,8-diazabicyclo[3.2. 1]octane-8-carboxamide] | A (A: indicates that the ratio of IC50 against KrasG12D vs. IC50 against KrasG12S is 1-fold or greater) |  |  | ≤ 1000 | 500 to 5000 |  |  |
| N#Cc1c(N)sc2c(F)ccc(-c3c(Cl)cc4c(N5CCCC6C5CCN6C(=O)n5cncn5)nc(OC[C@@]56CCCN5C[C@H](F)C6)nc4c3F)c12 (stereo partly drawn) [Compound A184, 4-(4-(1-(1H-1,2,4-triazole-1-carbonyl)octahydro-4H-pyrrolo[3,2-b]pyridin-4-yl)-6-chloro-8-fluoro-2-(((2R,7aS)-2-fluorotetrahydro-1H-pyrrolizin-7a(5H)-yl)methoxy)quinazolin-7-yl)-2-amino-7-fluorobenzo[b]thiophene-3-carbonitrile] | A (A: indicates that the ratio of IC50 against KrasG12D vs. IC50 against KrasG12S is 1-fold or greater) | ≤ 1000 |  |  |  | ≤ 500 | greater than 1 |
| N#Cc1ccn(C(=O)N2C3CCC2CN(c2nc(OC[C@@]45CCCN4C[C@H](F)C5)nc4c(F)c(-c5ccc(F)c6sc(N)nc56)c(Cl)cc24)C3)n1 [Compound A245, 1-(3-(7-(2-amino-7-fluorobenzo[d]thiazol-4-yl)-6-chloro-8-fluoro-2-(((2R,7aS)-2-fluorotetrahydro-1H-pyrrolizin-7a(5H)-yl)methoxy)quinazolin-4-yl)-3,8-diazabicyclo[3.2. 1]octane-8-carbonyl)-1H-pyrazole-3-carbonitrile] | A (A: indicates that the ratio of IC50 against KrasG12D vs. IC50 against KrasG12S is 1-fold or greater) | ≤ 1000 | 500 to 5000 |  |  |  |  |
| Cc1ncn(C(=O)N2C3CCC2CN(c2nc(OC[C@@]45CCCN4C[C@H](F)C5)nc4c(F)c(-c5ccc(F)c6sc(N)c(C#N)c56)c(Cl)cc24)C3)n1 [Compound A186, 2-amino-4-(6-chloro-8-fluoro-2-(((2R,7aS)-2-fluorotetrahydro-1H-pyrrolizin-7a(5H)-yl)methoxy)-4-(8-(3-methyl-1H-1,2,4-triazole-1-carbonyl)-3,8-diazabicyclo[3.2.1]octan-3-yl)quinazolin-7-yl)-7-fluorobenzo[b]thiophene-3-carbonitrile] | A (A: indicates that the ratio of IC50 against KrasG12D vs. IC50 against KrasG12S is 1-fold or greater) |  |  | ≤ 1000 | 500 to 5000 |  |  |
| C#Cc1c(F)ccc2cc(O)cc(-c3ncc4c(N5CCOCC6(CN(C(=O)n7cncn7)C6)C5)nc(OC[C@@]56CCCN5C[C@H](F)C6)nc4c3F)c12 [Compound A158, (9-(7-(8-ethynyl-7-fluoro-3-hydroxynaphthalen-1-yl)-8-fluoro-2-(((2R,7aS)-2-fluorotetrahydro-1H-pyrrolizin-7a(5H)-yl)methoxy)pyrido[4,3-d]pyrimidin-4-yl)-6-oxa-2,9-diazaspiro[3.6]decan-2-yl)(1H-1,2,4-triazol-1-yl)methanone] | A (A: indicates that the ratio of IC50 against KrasG12D vs. IC50 against KrasG12S is 1-fold or greater) | 1000 to 10000 | 500 to 5000 |  |  |  |  |
| N#Cc1c(N)sc2c(F)ccc(-c3c(Cl)cc4c(N5CC6CCC(C5)N6C(=O)n5cncn5)nc(OC[C@@]56CCCN5C[C@H](F)C6)nc4c3F)c12 [Compound A260, 4-(4-(8-(1H-1,2,4-triazole-1-carbonyl)-3,8-diazabicyclo[3.2.1]octan-3-yl)-6-chloro-8-fluoro-2-(((2R,7aS)-2-fluorotetrahydro-1H-pyrrolizin-7a(5H)-yl)methoxy)quinazolin-7-yl)-2-amino-7-fluorobenzo[b]thiophene-3-carbonitrile] | A (A: indicates that the ratio of IC50 against KrasG12D vs. IC50 against KrasG12S is 1-fold or greater) | ≤ 1000 |  |  |  | ≤ 500 |  |
| N#Cc1c(N)sc2c(F)ccc(-c3c(Cl)cc4c(N5CC6CCN(C(=O)n7cncn7)C6C5)nc(OC[C@@]56CCCN5C[C@H](F)C6)nc4c3F)c12 (stereo partly drawn) [Compound A180, 4-(4-(1-(1H-1,2,4-triazole-1-carbonyl)hexahydropyrrolo[3,4-b]pyrrol-5(1H)-yl)-6-chloro-8-fluoro-2-(((2R,7aS)-2-fluorotetrahydro-1H-pyrrolizin-7a(5H)-yl)methoxy)quinazolm-7-yl)-2-amino-7-fluorobenzo[b]thiophene-3-carbonitrile] | A (A: indicates that the ratio of IC50 against KrasG12D vs. IC50 against KrasG12S is 1-fold or greater) | 1000 to 10000 |  |  |  | ≤ 500 |  |

Source: patent EP4389751A1, “HETEROCYCLIC COMPOUNDS AND USES THEREOF” (Kumquat Biosciences Inc., priority 2021, dated 2024)
